Test results from patent publication US6821986B2, “Amino acid derivatives and their use as medicines” (Societe de Conseils de Recherchet et E'Applications …, priority 2000, dated 2004).

What was measured:
[1] = target: T1, neuronal constitutive NO synthase (Rattus norvegicus, UniProt P29476); experiment: Effects on neuronal constitutive NO synthase of a rat's cerebellum ([3H]L-arginine to [3H]L-citrulline conversion); format: biochemical; conditions: rat cerebellum homogenate, conversion of [3H]L-arginine to [3H]L-citrulline, 15 min
T1 construct: The reaction is initiated by adding 50 μl of homogenate; from tissue; host or cells: cerebellum of Sprague-Dawley rats (homogenate, centrifuged at 21000 g)
Description: Study of the Effects on Neuronal Constitutive NO Synthase of a Rat's Cerebellum
The inhibitory activity of the products of the invention is determined by measuring their effects on the conversion by NO synthase of [^3H]L-arginine to [^3H]L-citrulline according to the modified method of Bredt and Snyder (Proc. Natl. Acad. Sci. USA, (1990) 87: 682-685). The cerebellums of Sprague-Dawley rats (300 g-Charles River) are rapidly removed, dissected at 4° C. and homogenized in a volume of extraction buffer (HEPES 50 mM, EDTA 1 mM, pH 7.4, pepstatin A […], leupeptin […]). The homogenates are then centrifuged at 21000 g for 15 min at 4° C. Dosage is carried out in glass test tubes in which 100 μl of incubation buffer containing 100 mM of HEPES (pH 7.4), 2 mM of EDTA, 2.5 mM of CaCl2, 2 mM of dithiotreitol, 2 mM of reduced NADPH and 10 μg/ml of calmodulin are distributed. 25 μl of a solution containing 100 nM of [^3H]L-arginine (Specific activity: 56.4 Ci/mmole, Amersham) and 40 μM of non-radioactive L-arginine is added. The reaction is initiated by adding 50 μl of homogenate, the final volume being 200 μl (the missing 25 μl are either water or the tested product). […] After passing the samples through a 1 ml column of DOWEX resin, the radioactivity is quantified by a liquid scintillation spectrometer.

[2] = tested on: HT-22 cells; experiment: Protection of HT-22 cells from oxidation stress induced by glutamate (MTT viability); format: cell-based; conditions: Mus musculus, glutamate 5 mM, cell viability after 24 h by MTT
Description: Study of the Effects on the Oxidation Stress Induced by Glutamate on Cells in Culture (HT-22).
The inhibitory activity of the products of the invention is determined by measuring their ability to protect the cells of a mouse hippocampal line (HT-22) from an oxidation stress caused by glutamate. The biosynthesis of glutathione, an essential element of cell detoxification of free radicals, requires the active transport of cystine to the interior of the cell. The glutamate by opposing the penetration of cystine causes a reduction in the level of glutathione which leads to the death of the cell due to oxidation stress (Demerlé-Pallardy, C. et al., J. Neurochem. (2000) 74, 2079-2086; Murphy, T. H. et al., Neuron, (1989) 2: 1547-1558). The cells are cultured at 37° C. in a DMEM medium with 10% of foetal calf serum added to it. The tests are carried out in 96-well plates containing 5000 cells per well. The glutamate (5 mM) is added to the medium containing or not containing the products to be tested. The cell viability is tested after 24 h by the MTT method (Hansen, M. B. et al., J Immunol. Methods (1989), 119, 203-210). The ability of the compounds to protect the cells from the toxic action of the glutamate is estimated in EC50, calculated relative to the viability of cells which have not been subjected to the action of glutamate considered as 100% viability.

Row | IC50 [1] [µM] | SMILES | EC50 [2] [µM]
1 | < 10 | CN1CCc2cc(NC(=O)[C@@H](N)CCCNC(=N)N[N+](=O)[O-])ccc21 [Example 2, (2S)-2-amino-5-{[imino(2-oxido-2-oxohydrazino)methyl]amino}-N-(1-methyl-2,3-dihydro-1H-indol-5-yl)pentanamide] | < 25
2 | < 10 | N=C(NCCC[C@H](N)C(=O)Nc1ccc(Nc2ccccc2)cc1)N[N+](=O)[O-] [Example 1, (2S)-2-amino-N-(4-anilinophenyl)-5-{[imino(2-oxido-2-oxohydrazino)methyl]amino}pentanamide] | < 25
